The NIST ThermoML archive (doi:10.1016/j.jct.2013.08.034)
Numbers after ± are expanded uncertainties.

Assay: xn = mol fraction of the nth substance listed
Details: 101 kPa, Liquid; for mass density: Vibrating tube method; for electrical conductivity: Conductivity Meter Jenco 3107; for viscosity: Cone and plate viscometry

CC1COC(=O)O1 (configuration not stated) [4-methyl-1,3-dioxolan-2-one] + CCCC[n+]1ccn(C)c1.O=S(=O)([N-]S(=O)(=O)C(F)(F)F)C(F)(F)F
Details | electrical conductivity [S/m] | mass density [kg/m3] | viscosity [mPa·s]
318.15 K, x2 = 0.6902 | – | 1389.72 ± 0.57 | –
318.15 K, x2 = 0.7989 | – | 1400.29 ± 0.58 | –
318.15 K, x2 = 0.898 | – | 1408.1 ± 0.59 | –
323.15 K, x2 = 0 | – | – | 1.78 ± 0.18
323.15 K, x2 = 0.0146 | – | 1183.28 ± 0.41 | –
323.15 K, x2 = 0.0296 | – | 1194.23 ± 0.42 | –
323.15 K, x2 = 0.0453 | – | 1204.99 ± 0.43 | –
323.15 K, x2 = 0.0502 | 1.32 ± 0.04 | – | –
323.15 K, x2 = 0.0616 | – | 1215.52 ± 0.43 | –
323.15 K, x2 = 0.0732 | – | 1222.56 ± 0.43 | –
323.15 K, x2 = 0.0997 | – | 1237.51 ± 0.44 | –
323.15 K, x2 = 0.1 | – | – | 2.68 ± 0.27
323.15 K, x2 = 0.1004 | 1.74 ± 0.052 | – | –
323.15 K, x2 = 0.2001 | 1.97 ± 0.059 | – | –
323.15 K, x2 = 0.2002 | – | – | 3.81 ± 0.38
323.15 K, x2 = 0.2004 | – | 1283 ± 0.49 | –
323.15 K, x2 = 0.3002 | 1.85 ± 0.056 | – | –
323.15 K, x2 = 0.3007 | – | – | 5.14 ± 0.52
323.15 K, x2 = 0.3081 | – | 1317.8 ± 0.51 | –
323.15 K, x2 = 0.3998 | – | – | 6.58 ± 0.66
323.15 K, x2 = 0.4004 | – | 1340.2 ± 0.53 | –
323.15 K, x2 = 0.4005 | 1.74 ± 0.052 | – | –
323.15 K, x2 = 0.5004 | – | – | 8.34 ± 0.84
323.15 K, x2 = 0.5007 | 1.57 ± 0.047 | – | –
323.15 K, x2 = 0.5021 | – | 1359.32 ± 0.54 | –
323.15 K, x2 = 0.5839 | – | 1371.65 ± 0.55 | –
323.15 K, x2 = 0.6002 | – | – | 10.31 ± 1
323.15 K, x2 = 0.6003 | 1.41 ± 0.042 | – | –
323.15 K, x2 = 0.6902 | – | 1384.62 ± 0.57 | –
323.15 K, x2 = 0.6979 | – | – | 12.41 ± 1.2
323.15 K, x2 = 0.6989 | 1.25 ± 0.038 | – | –
323.15 K, x2 = 0.7989 | – | 1395.23 ± 0.57 | –
323.15 K, x2 = 0.8001 | 1.1 ± 0.033 | – | –
323.15 K, x2 = 0.8015 | – | – | 15.15 ± 1.5
323.15 K, x2 = 0.8959 | 0.93 ± 0.028 | – | 17.34 ± 1.7
323.15 K, x2 = 0.898 | – | 1403.08 ± 0.58 | –
328.15 K, x2 = 0 | – | – | 1.63 ± 0.16
328.15 K, x2 = 0.0502 | 1.41 ± 0.042 | – | –
328.15 K, x2 = 0.1 | – | – | 2.47 ± 0.25
328.15 K, x2 = 0.1004 | 1.89 ± 0.057 | – | –
328.15 K, x2 = 0.2001 | 2.12 ± 0.064 | – | –
328.15 K, x2 = 0.2002 | – | – | 3.45 ± 0.35
328.15 K, x2 = 0.3002 | 2.06 ± 0.062 | – | –
328.15 K, x2 = 0.3007 | – | – | 4.68 ± 0.47
328.15 K, x2 = 0.3998 | – | – | 5.94 ± 0.6
328.15 K, x2 = 0.4005 | 1.92 ± 0.057 | – | –
328.15 K, x2 = 0.5004 | – | – | 7.41 ± 0.74
328.15 K, x2 = 0.5007 | 1.74 ± 0.052 | – | –
328.15 K, x2 = 0.6002 | – | – | 9.19 ± 0.92
328.15 K, x2 = 0.6003 | 1.57 ± 0.047 | – | –
328.15 K, x2 = 0.6979 | – | – | 11 ± 1.1
328.15 K, x2 = 0.6989 | 1.4 ± 0.042 | – | –
328.15 K, x2 = 0.8001 | 1.25 ± 0.037 | – | –
328.15 K, x2 = 0.8015 | – | – | 13.3 ± 1.3
328.15 K, x2 = 0.8959 | 1.07 ± 0.032 | – | 15.12 ± 1.5
333.15 K, x2 = 0 | – | – | 1.54 ± 0.15
333.15 K, x2 = 0.1 | – | – | 2.31 ± 0.23
333.15 K, x2 = 0.2002 | – | – | 3.22 ± 0.32
333.15 K, x2 = 0.3007 | – | – | 4.26 ± 0.43
333.15 K, x2 = 0.3998 | – | – | 5.37 ± 0.54
333.15 K, x2 = 0.5004 | – | – | 6.66 ± 0.67
333.15 K, x2 = 0.6002 | – | – | 8.17 ± 0.82
333.15 K, x2 = 0.6979 | – | – | 9.7 ± 0.97
333.15 K, x2 = 0.8015 | – | – | 11.7 ± 1.2
333.15 K, x2 = 0.8959 | – | – | 13.26 ± 1.3
